“And” between values parts separate entries of the source, which are not always exact repeats. Equal values may be shown once. Numbers after ± are expanded uncertainties.
How the values were obtained:
[1] = Liquid; for mass density: Vibrating tube method
[2] = Boiling temperature at pressure P; conditions: Liquid, Ebulliometric method (Recirculating still)
[3] = refractive index (Na D-line) (dimensionless); conditions: 298.15 K; 101.33 kPa; Liquid; Standard Abbe refractometry

CC1CCC(=O)O1 (stereo not given) [γ-valerolactone]
[1]
Conditions | mass density | vapor or sublimation pressure [kPa]
293.15 K, 186 kPa | 1053.38 ± 1 kg/m3 | –
293.15 K, 187.01 kPa | 1053.43 ± 1 kg/m3 | –
293.15 K, 476.37 kPa | 1053.68 ± 1 kg/m3 | –
293.15 K, 977 kPa | 1054.07 ± 1 kg/m3 | –
293.15 K, 1979.3 kPa | 1054.81 ± 1 kg/m3 | –
293.15 K, 2978.5 kPa | 1055.47 ± 1 kg/m3 | –
293.15 K, 3976.8 kPa | 1056.08 ± 1 kg/m3 | –
293.15 K, 4978.1 kPa | 1056.65 ± 1 kg/m3 | –
298 K, 101.33 kPa | 1049.2 ± 1.2 kg/m3 | –
298.1 K, 107 kPa | 1048.8 ± 1.2 kg/m3 | –
298.16 K, 187.01 kPa | 1048.68 ± 1 kg/m3 | –
298.16 K, 189.01 kPa | 1048.83 ± 1 kg/m3 | –
298.16 K, 480.38 kPa | 1048.97 ± 1 kg/m3 | –
298.16 K, 978 kPa | 1049.41 ± 1 kg/m3 | –
298.16 K, 1980.3 kPa | 1050.16 ± 1 kg/m3 | –
298.16 K, 2980.5 kPa | 1050.86 ± 1 kg/m3 | –
298.16 K, 3977.8 kPa | 1051.48 ± 1 kg/m3 | –
298.16 K, 4976.1 kPa | 1052.05 ± 1 kg/m3 | –
350.18 K, Closed cell (Static) method | – | 1.2 ± 0.2
353.15 K, 187.01 kPa | 996.384 ± 1 kg/m3 | –
353.15 K, 190.01 kPa | 996.734 ± 1 kg/m3 | –
353.15 K, 194.01 kPa | 997.077 ± 1 kg/m3 | –
353.15 K, 198.02 kPa | 997.127 ± 1 kg/m3 | –
353.15 K, 484.38 kPa | 996.824 ± 1.1 kg/m3 | –
353.15 K, 492.39 kPa | 997.272 ± 1.1 kg/m3 | –
353.15 K, 979.01 kPa | 997.655 ± 1.1 kg/m3 | –
353.15 K, 984.01 kPa | 997.904 ± 1 kg/m3 | –
353.15 K, 985.01 kPa | 997.898 ± 1.1 kg/m3 | –
353.15 K, 1981.3 kPa | 998.74 ± 1 kg/m3 | –
353.15 K, 1987.3 kPa | 998.832 ± 1 kg/m3 | –
353.15 K, 1988.3 kPa | 998.837 ± 1 kg/m3 | –
353.15 K, 2979.5 kPa | 999.633 ± 1 kg/m3 | –
353.15 K, 2985.5 kPa | 999.73 ± 1 kg/m3 and 999.724 ± 1 kg/m3 | –
353.15 K, 3979.8 kPa | 1000.43 ± 1 kg/m3 | –
353.15 K, 3983.8 kPa | 1000.53 ± 1 kg/m3 | –
353.15 K, 3986.8 kPa | 1000.53 ± 1 kg/m3 | –
353.15 K, 4978.1 kPa | 1001.2 ± 1 kg/m3 | –
353.15 K, 4983.1 kPa | 1001.29 ± 1 kg/m3 | –
353.15 K, 4984.1 kPa | 1001.29 ± 1 kg/m3 | –
353.16 K, 188.01 kPa | 997.169 ± 1 kg/m3 | –
353.16 K, 489.39 kPa | 997.314 ± 1 kg/m3 | –
393.15 K, 180 kPa | 958.067 ± 1 kg/m3 | –
393.15 K, 182 kPa | 958.857 ± 1 kg/m3 and 958.463 ± 1 kg/m3 | –
393.15 K, 486.38 kPa | 958.065 ± 1 kg/m3 | –
393.15 K, 491.39 kPa | 958.888 ± 1 kg/m3 | –
393.15 K, 978 kPa | 959.43 ± 1.1 kg/m3 | –
393.15 K, 984.01 kPa | 959.712 ± 1 kg/m3 | –
393.15 K, 1981.3 kPa | 960.847 ± 1 kg/m3 | –
393.15 K, 1985.3 kPa | 960.883 ± 1 kg/m3 | –
393.15 K, 2980.5 kPa | 961.927 ± 1 kg/m3 | –
393.15 K, 2984.5 kPa | 961.921 ± 1 kg/m3 | –
393.15 K, 3978.8 kPa | 962.917 ± 1 kg/m3 | –
393.15 K, 3981.8 kPa | 962.913 ± 1 kg/m3 | –
393.15 K, 4977.1 kPa | 963.866 ± 1 kg/m3 | –
393.15 K, 4979.1 kPa | 963.861 ± 1 kg/m3 | –
393.16 K, 203.03 kPa | 958.939 ± 1 kg/m3 | –
433.14 K, 184 kPa | 918.984 ± 1 kg/m3 | –
433.15 K, 181 kPa | 918.395 ± 1 kg/m3 | –
433.15 K, 492.39 kPa | 919.562 ± 1 kg/m3 | –
433.15 K, 1984.3 kPa | 921.775 ± 1 kg/m3 | –
433.15 K, 2984.5 kPa | 923.091 ± 1 kg/m3 | –
433.15 K, 3983.8 kPa | 924.314 ± 1 kg/m3 | –
433.15 K, 4980.1 kPa | 925.496 ± 1 kg/m3 | –
433.16 K, 491.39 kPa | 919.299 ± 1 kg/m3 | –
433.16 K, 982.01 kPa | 920.309 ± 1 kg/m3 | –
453.14 K, 183 kPa | 898.494 ± 1 kg/m3 | –
453.15 K, 199.02 kPa | 898.908 ± 1 kg/m3 | –
453.15 K, 490.39 kPa | 898.859 ± 1 kg/m3 | –
453.15 K, 983.01 kPa | 900.059 ± 1 kg/m3 | –
453.15 K, 1982.3 kPa | 901.6 ± 1 kg/m3 | –
453.15 K, 2985.5 kPa | 903.051 ± 1 kg/m3 | –
453.15 K, 3983.8 kPa | 904.412 ± 1 kg/m3 | –
453.15 K, 4981.1 kPa | 905.731 ± 1 kg/m3 | –

[2]
Conditions | Boiling temperature at pressure P [°C]
0.58 kPa | 65.0 ± 6.3
1.14 kPa | 77.5 ± 5.7
1.49 kPa | 83.04 ± 3.9
1.86 kPa | 87.47 ± 3
2.49 kPa | 93.77 ± 2.1
4.37 kPa | 106.5 ± 1.3
8.66 kPa | 123.7 ± 1.1
10.61 kPa | 129.4 ± 0.8
11.92 kPa | 132.8 ± 0.6
16.51 kPa | 142.2 ± 0.6
20.17 kPa | 148.1 ± 0.5
27.32 kPa | 157.78 ± 0.35
35.64 kPa | 166.5 ± 0.3
43.21 kPa | 173.18 ± 0.23
61.04 kPa | 185.72 ± 0.2
82.18 kPa | 197.04 ± 0.18

Conditions | refractive index
[3] | 1.4316 ± 0.0012

From the NIST ThermoML archive (doi:10.1021/acs.jced.5b00724)
